Reference: patent US11324725B2, “Compositions and methods for the inhibition of pruritus” (The United States of America, as represented by the …, priority 2017, dated 2022)
Entries after “also recorded” stand apart in the source; their conditions may differ. Like-named read-outs stand apart in the source and are kept apart here.

Biological target: T1, hNpr1 (Homo sapiens, UniProt P16066)
T1 sequence (P16066 33-1061): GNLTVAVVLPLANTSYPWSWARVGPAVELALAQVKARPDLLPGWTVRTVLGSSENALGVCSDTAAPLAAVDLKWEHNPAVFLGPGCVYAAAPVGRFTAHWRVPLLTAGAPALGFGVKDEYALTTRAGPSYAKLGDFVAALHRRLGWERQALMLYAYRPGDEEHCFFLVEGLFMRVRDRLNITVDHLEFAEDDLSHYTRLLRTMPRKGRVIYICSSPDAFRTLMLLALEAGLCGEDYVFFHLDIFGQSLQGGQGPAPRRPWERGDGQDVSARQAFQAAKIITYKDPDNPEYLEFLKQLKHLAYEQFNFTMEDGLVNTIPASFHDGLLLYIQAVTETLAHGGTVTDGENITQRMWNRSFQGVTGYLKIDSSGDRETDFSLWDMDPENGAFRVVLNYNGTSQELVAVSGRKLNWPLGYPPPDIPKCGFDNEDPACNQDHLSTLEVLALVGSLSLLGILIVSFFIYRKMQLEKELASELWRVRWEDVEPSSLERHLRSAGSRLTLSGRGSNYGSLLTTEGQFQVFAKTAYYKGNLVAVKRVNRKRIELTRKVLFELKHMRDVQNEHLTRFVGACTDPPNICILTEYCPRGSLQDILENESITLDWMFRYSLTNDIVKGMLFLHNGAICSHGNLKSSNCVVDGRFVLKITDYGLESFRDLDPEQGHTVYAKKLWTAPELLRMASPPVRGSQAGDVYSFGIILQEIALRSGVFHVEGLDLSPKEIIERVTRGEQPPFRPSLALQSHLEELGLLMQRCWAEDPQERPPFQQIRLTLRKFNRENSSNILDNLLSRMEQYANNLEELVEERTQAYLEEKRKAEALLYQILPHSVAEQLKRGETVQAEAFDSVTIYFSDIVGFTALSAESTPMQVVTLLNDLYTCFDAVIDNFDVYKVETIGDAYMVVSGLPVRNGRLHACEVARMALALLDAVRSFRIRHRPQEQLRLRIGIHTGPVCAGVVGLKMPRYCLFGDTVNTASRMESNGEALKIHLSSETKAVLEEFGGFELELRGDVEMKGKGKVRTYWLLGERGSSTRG
Experiment: qHTS GloSensor cGMP assay, hNppa-stimulated HEK-hNpr1-cGMP-sensor cells (1536-well)
Assay type: cell-based
Settings: for Imax, HEK-hNpr1-cGMP-sensor cells: −100% = 38.3 μM A-71915; for Inhibition of hNppa-induced hNpr1 activity (in words): HEK-hNpr1-cGMP-sensor cells
Description: In order to identify small molecular compounds that inhibit the Npr1 receptor a high-throughput assay to probe inhibition of the receptor guanylate cyclase Npr1 was developed. The assay was designed taking advantage of Promega's GloSensor™ technology (Promega, Madison, Wis.). This technology involves the expression of a cyclic guanosine monophosphate (cGMP) biosensor, comprised of a firefly luciferase variant that was coupled to the cGMP binding domain of human phosphodiesterase 5A, and loading of cells with a cell-permeable luciferase substrate to monitor cGMP production by Npr1 in real time in live cells. Briefly, human embryonic kidney 293 cells stably expressing the human Npr1 and the pGloSensor™-40F cGMP vector (“pGloSensor™-40F”) were generated. Stimulating these cells with the Npr1 agonists human NppA or NppB, luciferase-induced light production could be detected in a dose-dependent manner. HEK293 cells stably expressing human Npr2 and pGS-40F and cells only expressing pGS-40F were also generated to conduct secondary counter screens. In these cells, NppC or sodium nitroprusside were used to stimulate Npr2 or soluble guanylate cyclase which is endogenously expressed in HEK293 cells, respectively. The Npr2-NppC counter screen was employed to search for agents that minimally effected this agonist-receptor interaction. The Npr2-NppC system was used because the side effects of most drugs occur on related receptors. Npr1 and Npr2 are the most related receptors in sequence and function and there are no additional active receptor subtypes in this family of receptors. The procedure is described in detail below.
Measurement of intracellular cGMP production in HEK-hNpr1-cGMP-sensor cells was scaled to 4 μl volumes in 1536-well format and primary screening was performed in an automated manner in 7- to 11-point qHTS. Cells (1.5×10^3) were plated in assay medium in white, solid bottom TC treated 1536-well plates (Greiner Bio-One) with a Multidrop™ Combi Reagent Dispenser (Thermo Fisher Scientific). Cells were incubated at 37° C., 5% CO2 and 95% humidity for 16 hours and 1 μl of GloSensor™ reagent at a final assay concentration of 2% or assay medium as background control was added to respective wells with a BioRAPTR Flying Reagent Dispenser™ (Beckman Coulter, Schaumburg, Ill.). Cells were incubated at room temperature for 2 hours, protected from light. Compound (23 nl) was transferred by a pintool (Kalypsys, San Diego, Calif.) in the concentration range of […] to 46.1 μM along with DMSO and a titration of A-71915 from top concentration 38.3 μM to 1.7 nM in columns 1-4 of each plate as vehicle and positive controls, respectively. Cells were incubated with compound for 30 minutes at room temperature, protected from light. Pre-agonist luminescence for each plate was read on a ViewLux™ plate reader (PerkinElmer). Human NppA (1 μl) at a final assay concentration of 0.1 nM, or C02-independent media were added to respective wells with a BioRAPTR Flying Reagent Dispenser™ (Beckman Coulter). Plates were incubated for 20 minutes at room temperature, protected from light, and luminescence was read on a ViewLux™ plate reader.
Pre-agonist and post-agonist data were normalized by plate to corresponding intra-plate controls as described in Inglese et al., PNAS USA, 103: 11473-11478 (2006) (which is incorporated herein by reference, in its entirety). Assay statistics including S:N and Z′ were calculated using the same respective controls. Pre-agonist data were normalized to the average signal of DMSO-treated wells with 2% GoSensor™ reagent as 0% and the average signal of DMSO-treated wells with assay medium as −100% activity. Post-agonist data were normalized to the average signal of DMSO-treated wells with 2% GoSensor™ reagent and 0.1 nM hNppA as 0% and the average signal of wells treated with 38.3 μM A-71915 with 2% GloSensor™ reagent and 0.1 nM hNppA as −100% activity. […]

[1] = Table 1, cell-based GloSensor assay of hNpr1 inhibition, read-out: IC50 GloSensor™ assay
[2] = qHTS follow-up, hNppa-stimulated, four-parameter fit, read-out: IC50, HEK-hNpr1-cGMP-sensor cells
[3] = qHTS follow-up, hNppa-stimulated

Row | SMILES | IC50 [1] | IC50 [2] | Imax, HEK-hNpr1-cGMP-sensor cells [3] | Inhibition of hNppa-induced hNpr1 activity (in words)
1 | Cl.O=C1Nc2ccccc2CN(CC2CCCCC2)C12CCNCC2 [JS-1, 4-(cyclohexylmethyl)-4,5-dihydrospiro[benzo[e][1,4]diazepine-3,4′-piperidin]-2(1H)-one hydrochloride] | 7.31 µM | 26 ± 1.5 µM | −119 ± 20% | –
2 | O=C(Cc1ccc(Cl)cc1)N1Cc2ccccc2CC2(CCCN2CC2CCNC2)C1 (stereo not drawn) [JS-2, 2-(4-chlorophenyl)-1-(1′-(pyrrolidin-3-ylmethyl)-1,5-dihydrospiro[benzo[c]azepine-4,2′-pyrrolidin]-2(3H)-yl)ethan-1-one] | 13 µM | 25 ± 1.3 µM | −102 ± 9% | –
3 | CCC(CC)c1cc([C@H]2CN3CC[C@H]2C[C@@H]3CNS(=O)(=O)c2cccs2)nc(-c2ccncc2)n1 [JS-3, N-(((2R,4S,5R)-5-(6-(pentan-3-yl)-2-(pyridin-4-yl)pyrimidin-4-yl)quinuclidin-2-yl)methyl)thiophene-2-sulfonamide] | 14.1 µM | 62 ± 19 µM | −183 ± 67% | –
4 | COc1cc(CN2CCC(C)(NC(C)=O)CC2)cc(-c2ccncc2)c1 [JS-4, N-(1-(3-methoxy-5-(pyridin-4-yl)benzyl)-4-methylpiperidin-4-yl)acetamide] | 14.1 µM | 16 ± 13 µM | −110 ± 10% | –
5 | Cc1noc(C)c1-c1cc(-c2ccccc2Oc2ccccc2)cn2cncc12 [JS-5, 3,5-dimethyl-4-(6-(2-phenoxyphenyl)imidazo[1,5-a]pyridin-8-yl)isoxazole] | 28.2 µM | 32 ± 13 µM | −127 ± 12% | inhibit hNpr1 activity; also recorded: inhibits hNppa-induced hNpr1 activity; also recorded: antagonizes natriuretic peptide-induced activation
6 | COc1ccccc1-c1n[nH]c2ncc(C(=O)NCc3cccnc3)nc12 [JS-6, 3-(2-methoxyphenyl)-N-(pyridin-3-ylmethyl)-1H-pyrazolo[3,4-b]pyrazine-5-carboxamide] | 11.2 µM | 24 ± 1.2 µM | −15 ± 3% | –
7 | O=C(NCc1cccnc1)c1cnc2[nH]nc(-c3ccccc3)c2n1 [JS-7, 3-phenyl-N-(pyridin-3-ylmethyl)-1H-pyrazolo[3,4-b]pyrazine-5-carboxamide] | 22.4 µM | 85 ± 22 µM | −216 ± 97% | –
8 | Cc1nn2c(c1-c1ccccc1OCc1ccccc1)N(C(=O)Cc1ccc3c(c1)OCO3)CCC2 [JS-8, 2-(benzo[d][1,3]dioxol-5-yl)-1-(3-(2-(benzyloxy)phenyl)-2-methyl-6,7-dihydropyrazolo[1,5-a]pyrimidin-4(5H)-yl)ethan-1-one] | 8.91 µM | 13 ± 1.2 µM | −122 ± 9% | inhibit hNpr1 activity; also recorded: inhibits hNppa-induced hNpr1 activity; also recorded: antagonizes natriuretic peptide-induced activation
9 | Cc1nn2c(c1-c1ccccc1OCc1ccccc1)N(C(=O)Cc1ccccn1)CCC2 [JS-9, 1-(3-(2-(benzyloxy)phenyl)-2-methyl-6,7-dihydropyrazolo[1,5-a]pyrimidin-4(5H)-yl)-2-(pyridin-2-yl)ethan-1-one] | 8.91 µM | 35 ± 15 µM | −106 ± 18% | –
10 | Cc1nn2c(c1-c1ccccc1Oc1ccccc1)N(C(=O)Cc1ccc3c(c1)OCO3)CCC2 [JS-10, 2-(benzo[d][1,3]dioxol-5-yl)-1-(2-methyl-3-(2-phenoxyphenyl)-6,7-dihydropyrazolo[1,5-a]pyrimidin-4(5H)-yl)ethan-1-one] | 7.94 µM | 17 ± 1.3 µM | −122 ± 12% | –
11 | Cc1cc(CNC(=O)c2ccc3c(c2)n(CC2CC2)c(=O)n3C2CCCCC2)on1 [JS-11, 1-cyclohexyl-3-(cyclopropylmethyl)-N-((3-methylisoxazol-5-yl)methyl)-2-oxo-2,3-dihydro-1H-benzo[d]imidazole-5-carboxamide] | 5.62 µM | 21 ± 1.3 µM | −140 ± 13% | inhibit hNpr1 activity; also recorded: inhibits hNppa-induced hNpr1 activity; also recorded: antagonizes natriuretic peptide-induced activation
12 | COc1ccc(C2(C(=O)N3CCC4(CC3)c3nccn3-c3ccccc3CN4C)CC2)cc1 [JS-12, (1-(4-methoxyphenyl)cyclopropyl)(5-methyl-5,6-dihydrospiro[benzo[f]imidazo[1,2-a][1,4]diazepine-4,4′-piperidin]-1′-yl)methanone] | 8.91 µM | 16 ± 1.3 µM | −116 ± 11% | –
13 | N#Cc1ccccc1CN1CCCC(C(=O)NCc2ccccc2)CCNC(=O)CC1 (stereo not drawn) [JS-13, N-benzyl-1-(2-cyanobenzyl)-4-oxo-1,5-diazacycloundecane-8-carboxamide] | 3.98 µM | 10 ± 1.2 µM | −99 ± 6% | –
14 | CN(Cc1ccccc1)C(=O)c1cn2ccnc(-c3ccccc3)c2n1 [JS-14, N-benzyl-N-methyl-8-phenylimidazo[1,2-a]pyrazine-2-carboxamide] | 6.31 µM | 117 ± 75 µM | −286 ± 966% | –
